We go through 14 compounds from PubChem BioAssay (NCI).

Among the test systems are CCRF-CEM leukemia; HCT-15 colon; MALME-3M melanoma; K-562 leukemia; TK-10 renal; MDA-MB-231 breast; 786-0 renal; PC-3 prostate; LOX IMVI melanoma; NCI-H522 lung; HL-60(TB) leukemia.
Common to all, as to assay: growth of human tumour cells (NCI), 48 h

Where “and” joins values, the source holds several entries; their conditions need not be identical. Equal entries are not always repeated.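 Interpolation was linear, between the two tested concentrations surrounding the appropriate level; five concentrations were tested over 48 hours in 96-well plates. GI50: concentration for 50% inhibition of growth. TGI: concentration producing complete growth inhibition.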 A value given as a limit tells only on which side of the number the result lay.

With `CCc1ccc2[nH]c(O)c(-c3[nH]c4ccccc4c3N=O)c2c1`, the TGI in the test with CCRF-CEM leukemia was greater than 100 µM; in the test with HCT-15 colon, 15.1 µM; in the test on MALME-3M melanoma it was 21.6 µM; with K-562 leukemia it was 97.1 µM; in the test on TK-10 renal it was 23.7 µM; in the test with MDA-MB-231 breast, 40.7 µM. The TGI was determined as 18.9 µM in the test with 786-0 renal, 19.8 µM with PC-3 prostate, 26.7 µM in the test with LOX IMVI melanoma and 16 µM in the test on NCI-H522 lung.

`O=C(CCCCCCCCC(=O)N1C(=O)CC(=O)N(c2cccc(Cl)c2)C1=S)N1C(=O)CC(=O)N(c2cccc(Cl)c2)C1=S`: the TGI with CCRF-CEM leukemia was greater than 100 µM; in the test on HCT-15 colon, greater than 100 µM; in the test on MALME-3M melanoma, greater than 100 µM; in the test with TK-10 renal, greater than 100 µM; in the test with MDA-MB-231 breast, 84.3 µM; in the test with 786-0 renal it was greater than 100 µM. The TGI with PC-3 prostate is 91.2 µM; with LOX IMVI melanoma, greater than 100 µM; with NCI-H522 lung it was 71.1 µM.

Regarding `O=c1[nH]nc(-c2ccccc2)n1/N=C/c1c(O)ccc2ccccc12`, the TGI in the test with CCRF-CEM leukemia, in the test on HCT-15 colon, in the test with K-562 leukemia, in the test with TK-10 renal, with MDA-MB-231 breast and in the test with 786-0 renal was greater than 100 µM in each case. Moreover, the TGI in the test with PC-3 prostate, in the test on LOX IMVI melanoma and with NCI-H522 lung was greater than 100 µM throughout.

Consider `N#Cc1c(N2CCCC2)ncn(Cc2ccccc2)c1=O`, for which the TGI in the test with CCRF-CEM leukemia, in the test with HCT-15 colon, with MALME-3M melanoma, in the test with K-562 leukemia, in the test with TK-10 renal and in the test with 786-0 renal was greater than 100 µM throughout. For the same compound, the TGI with PC-3 prostate, in the test with LOX IMVI melanoma, in the test with NCI-H522 lung and with HL-60(TB) leukemia was greater than 100 µM in each case.

For the compound `O=C(NC1CCN(Cc2ccccc2)CC1)c1cc2nc(-c3ccc(Cl)s3)cc(C(F)(F)F)n2n1`, the GI50 is greater than 100 µM in the test on CCRF-CEM leukemia, 3.29 µM with K-562 leukemia, 12.5 µM with TK-10 renal and 8.45 µM with NCI-H522 lung. In addition, the TGI with CCRF-CEM leukemia, in the test on K-562 leukemia, in the test with TK-10 renal and in the test on NCI-H522 lung was greater than 100 µM in each case.

With `COC(OC)C1OC(CO)C(n2ccc(N)nc2=O)C1O` (stereo not given), the TGI in the test with CCRF-CEM leukemia, in the test on HCT-15 colon, with MALME-3M melanoma, in the test on K-562 leukemia, with TK-10 renal and in the test with MDA-MB-231 breast was greater than 100 µM in each case. Further, the TGI with 786-0 renal, in the test with PC-3 prostate, with LOX IMVI melanoma and with NCI-H522 lung was greater than 100 µM in each case.

For the compound `O=C1NC2(CCCCC2)C2CCCCCC12` (stereo not given), the TGI in the test on HCT-15 colon, in the test on MALME-3M melanoma, with K-562 leukemia, in the test on TK-10 renal, in the test with LOX IMVI melanoma and with HL-60(TB) leukemia was greater than 100 µM throughout.

Turning to `Cc1cn(CC2=NCC(C)(C)N2)c(=O)[nH]c1=O`, the TGI with CCRF-CEM leukemia, in the test with HCT-15 colon, with MALME-3M melanoma, in the test on K-562 leukemia, in the test with TK-10 renal and in the test with MDA-MB-231 breast was greater than 100 µM each time. Besides, the TGI in the test with 786-0 renal, in the test with PC-3 prostate, in the test with LOX IMVI melanoma and with NCI-H522 lung was greater than 100 µM in each case.

Consider `c1ccc2c(c1)nc(NC1CCCC1)c1[nH]c(C3CCCC3)nc12`, for which the TGI in the test on CCRF-CEM leukemia is 64.3 µM; in the test with HCT-15 colon, 28.3 µM; in the test on MALME-3M melanoma, 30.7 µM; with K-562 leukemia, 41.4 µM; in the test with TK-10 renal, greater than 93.3 µM; in the test with 786-0 renal, 20.7 µM. Moreover, the TGI turned out to be 30.6 µM in the test on LOX IMVI melanoma, 36.9 µM in the test on NCI-H522 lung and 6.82 µM in the test on HL-60(TB) leukemia.

In the case of `CCOC(=O)CNC(=O)C(C)NC(=O)C(NC(=O)CC(c1ncc[nH]1)c1ncc[nH]1)C(C)CC` (stereo not given), the TGI in the test on CCRF-CEM leukemia, in the test with HCT-15 colon, with MALME-3M melanoma, in the test on K-562 leukemia, with TK-10 renal and with MDA-MB-231 breast was greater than 100 µM throughout. For the same compound, the TGI with 786-0 renal, with LOX IMVI melanoma, in the test on NCI-H522 lung and with HL-60(TB) leukemia was greater than 100 µM in each case.

`Cc1ccc(C(C2C(=O)N(C)C(=O)N(C)C2=O)C(F)(F)C(=O)N(C)C)cc1` (stereo not given): the TGI in the test on CCRF-CEM leukemia, with HCT-15 colon, in the test on MALME-3M melanoma, with TK-10 renal, with MDA-MB-231 breast and in the test on 786-0 renal was greater than 100 µM each time. Further, the TGI with PC-3 prostate and in the test on LOX IMVI melanoma was greater than 100 µM each time.

For the compound `CCCCCCCCCCCCCCCCCCNc1ccn(C2OC(COP(=O)(O)OCC3OC(n4cc(C)c(=O)[nH]c4=O)CC3N=[N+]=[N-])C(O)C2O)c(=O)n1` (stereo not given), the TGI in the test on CCRF-CEM leukemia is 48.7 µM; with HCT-15 colon, 36.1 µM; with MALME-3M melanoma, 32.1 µM; with K-562 leukemia, 50.3 µM; in the test on TK-10 renal, 69.5 µM; with MDA-MB-231 breast it was 56.7 µM. Further, the TGI was greater than 100 µM in the test with 786-0 renal, 22.5 µM in the test with PC-3 prostate, 37.8 µM with LOX IMVI melanoma and 30.7 µM in the test on NCI-H522 lung.

As for `NC(=O)C#CC(N)=O`, the GI50 in the test on HCT-15 colon was 20 µM and 26.2 µM and > 100 µM; in the test on MALME-3M melanoma it was 5.74 µM; in the test on HL-60(TB) leukemia, 1.95 µM. In addition, the TGI in the test on HCT-15 colon is 76.2 µM and 100 µM and > 100 µM; in the test on MALME-3M melanoma, 19.7 µM and 18.1 µM; in the test on K-562 leukemia, 15.1 µM and 96.6 µM and 24.3 µM; in the test with TK-10 renal, 36.2 µM; in the test with 786-0 renal, greater than 58 µM; with LOX IMVI melanoma, 80.5 µM and 30.4 µM. Further, the TGI with NCI-H522 lung was 46.5 µM and 27.7 µM and 55.2 µM; in the test on HL-60(TB) leukemia it was 4.29 µM and 4.03 µM and 6.3 µM.

Turning to `Fc1ccc(N=NN2CCCC2)cc1`, the TGI in the test with CCRF-CEM leukemia, with HCT-15 colon, with MALME-3M melanoma, with K-562 leukemia, in the test on TK-10 renal and in the test on MDA-MB-231 breast was greater than 100 µM each time. For the same compound, the TGI with 786-0 renal, in the test on LOX IMVI melanoma, with NCI-H522 lung and in the test with HL-60(TB) leukemia was greater than 100 µM in each case.
